Reference: patent EP1211505A1, “METHOD FOR MEASURING SUBSTANCE AND M[…] TO BE USED IN THE METHOD” (Asahi Kasei Kabushiki Kaisha, priority 1999, dated 2001)
Like-named read-outs stand apart in the source and are kept apart here.

Assays:
[1] = Solubility of BCIP / BCI2; assay type: physicochemical; details: buffer 1: 1.01 M 2-ethylaminoethanol-HCl/0.505 mM MgCl2 (pH 9.87)
Experimental: The solubility of BCIP in the buffer 1 is about 70 mM. In order to obtain the optimum concentration of BCIP, first an ALP measurement reagent was prepared by dissolving BCIP in the buffer 1 to give a final concentration of 70 mM, and then the prepared reagent was diluted with the buffer 1 step by step to prepare ALP measurement reagents having BCIP final concentrations of 70 mM, 35 mM, 15 mM, 10 mM, 6.25 mM, 5 mM, 2.5 mM and 1.25 mm, respectively.

[2] = in the form of a sodium salt, cited from earlier work

O=P(O)(O)Oc1c[nH]c2ccc(Br)c(Cl)c12 [BCIP, 5-bromo-4-chloro-3-indoxyl phosphate]
solubility of BCIP in the buffer 1 [1]: about 70 mM
solubility of BCIP in pure water ([2]; same value expressed in mM): 54 mM
solubility of BCIP in pure water [2]: 20 mg/mL
